Measurements published in paper PMC12491383, “Organ and tumour dosimetry of ^177Lu-rhPSMA-10.1, a novel PSMA-targeted therapy: results from a Phase I trial” (European Journal of Nuclear Medicine and Molecular Imaging, 2025).
Several values for one entry are separate records, joined by “and”; a condition that tells them apart may be missing. Equal entries are not always repeated.

Assay: SPECT/CT image-based normal organ dosimetry (MIRD S-value methodology), Phase I BET-PSMA-121
Assay type: in vivo, human
Settings: for Cumulative image-based absorbed dose, bone marrow, range across patients / Cumulative image-based absorbed dose, salivary glands, range across patients: all cycles; for Cumulative Absorbed Dose, Bone Marrow, % of dose limit: limit 2 Gy; for Cumulative Absorbed Dose, Kidney, % of dose limit: limit 23 Gy; for Cumulative Absorbed Dose, Salivary Glands, % of dose limit: limit 24 Gy
From the text: Figure 1 provides a schematic representation of the study. Enrolled patients were sequentially entered into one of the two cohorts. Cohort A received 5.55 GBq (150 mCi) of ^177Lu-rhPSMA-10.1 and Cohort B received 7.40 GBq (200 mCi) of ^177Lu-rhPSMA-10.1. Subsequent doses were delivered at 6-week intervals subject to individual tolerability and safety assessments. Each patient received between one and three cycles, with a maximum of three cycles of treatment being permitted in this initial part of the study. All administrations of ^177Lu-rhPSMA-10.1 were performed using intravenous injection under the supervision of the treating physician.
Multi-bed single-photon emission computed tomography (SPECT)/CT was conducted at 3-, 24-, 48- and 168-hours post-^177Lu-rhPSMA-10.1 administration in each treatment cycle for the estimation of organ and tumour absorbed doses in each patient. Prior to commencement of the study, each investigating site was required to complete a calibration of their dose calibrator and SPECT/CT system to ensure harmonised quantification of the imaging data. Quantitative reconstructions and all dosimetry analyses were carried out centrally by an independent dosimetry vendor (Radiopharmaceutical Imaging and Dosimetry LLC, Baltimore, MD).
The specific absorbed doses (Gy/GBq) in normal organs and tumours were determined using the Medical Internal Radiation Dose (MIRD) Committee S-value methodology. Individual patient organ masses, determined via CT delineation, were scaled to reflect deviations from reference phantom geometry. Cumulative organ absorbed doses (Gy) were calculated across all treatment cycles. Further details on dosimetry methodology are provided in the supplemental materials and have been reported in accordance with EANM guidance.
All patients underwent multi-bed single-photon emission computed tomography (SPECT)/CT at 3-, 24-, 48- and 168-hours post-^177Lu-rhPSMA-10.1 administration during each treatment cycle. The acquisition parameters are shown in Supplemental Table S1. All images were centrally reconstructed in 3D-RD-S using the iterative Ordered Subsets Expectation-Maximization (OSEM) algorithm with 40 iterations and 5 subsets. Attenuation, scatter, and the Collimator-Detector Response Function (CDRF) were modelled during the iterative process using a rotation-based projector. CT-based attenuation compensation was performed using the attenuation map generated from the CT image. Scatter was modelled using the Effective Source Scatter Estimation (ESSE) method.
Reconstructed images were converted to activity concentration units (Becquerel (Bq)/millilitre (mL)) using the calibration factor generated for each individual imaging system. Organ masses were individually determined using CT-based delineations and longitudinal SPECT activity statistics were based on these same delineations.
Time integrated activity coefficients (TIACs) were calculated for each target tissue. This was done by fitting each time–activity curve with an exponential function (mono, bi, or exponential uptake and washout) and integrating from time 0 to infinity. The simpler function was preferred provided the fit was adequate ([…]).
The TIAC in the bone marrow was derived from contours drawn around the marrow inside lumbar vertebrae L3–L5. Where lesions were present in the lumbar area, contours were drawn around either the femur heads, scapula or sternum depending on the anatomical coverage. The TIAC was then divided by the marrow mass in this region to give the TIAC concentration. The total bone marrow TIAC was be obtained as the product of this concentration and the standard International Commission on Radiological Protection (ICRP) bone marrow mass.
The S-value methodology was used to estimate the target tissue dose. […]

[1] = Cohort A (5.55 GBq/cycle), 3 patients
[2] = Cohort B (7.40 GBq/cycle), 10 patients
[3] = Patient 1, Cohort A, 3 cycles, 16.20 GBq cumulative
[4] = Patient 2, Cohort A, 2 cycles, 11.57 GBq cumulative
[5] = Patient 3, Cohort A, 3 cycles, 16.58 GBq cumulative
[6] = Patient 4, Cohort B, 3 cycles, 22.94 GBq cumulative

## CC(C)(C)[Si](F)(c1ccc(C(=O)NC[C@@H](NC(=O)CN2CCN(CC(=O)[O-])CCN(CC(=O)[O-])CCN(CC(=O)[O-])CC2)C(=O)N[C@H](CCCCNC(=O)CCC(=O)NCCC[C@@H](NC(=O)CC[C@H](NC(=O)N[C@@H](CCC(=O)O)C(=O)O)C(=O)O)C(=O)O)C(=O)O)cc1)C(C)(C)C.[177Lu+3] [^177Lu-rhPSMA-10.1]
All Cycles
  Mean (SD) Absorbed Dose, adrenals: 0.010 (0.018) Gy/GBq
  Mean (SD) Absorbed Dose, bladder wall: 0.018 (0.010) Gy/GBq
  Mean (SD) Absorbed Dose, bone marrow (image-based): 0.011 Gy/GBq and 0.011 (0.020) Gy/GBq
  Mean (SD) Absorbed Dose, brain: 0.003 (0.004) Gy/GBq
  Mean (SD) Absorbed Dose, gall bladder wall: 0.004 (0.002) Gy/GBq
  Mean (SD) Absorbed Dose, heart: 0.014 (0.003) Gy/GBq
  Mean (SD) Absorbed Dose, intestine: 0.002 (0.001) Gy/GBq
  Mean (SD) Absorbed Dose, kidneys: 0.297 (0.098) Gy/GBq
  Mean (SD) Absorbed Dose, lacrimal glands: 0.611 (0.329) Gy/GBq
  Mean (SD) Absorbed Dose, liver: 0.035 (0.018) Gy/GBq
  Mean (SD) Absorbed Dose, lungs: 0.049 (0.055) Gy/GBq
  Mean (SD) Absorbed Dose, pancreas: 0.002 (0.001) Gy/GBq
  Mean (SD) Absorbed Dose, prostate: 0.003 (0.002) Gy/GBq
  Mean (SD) Absorbed Dose, salivary glands: 0.134 (0.077) Gy/GBq
  Mean (SD) Absorbed Dose, spleen: 0.034 (0.019) Gy/GBq
  Mean (SD) Absorbed Dose, stomach wall: 0.004 (0.003) Gy/GBq
  Mean (SD) Absorbed Dose, ureters: 0.002 (0.001) Gy/GBq
[1]
  Cumulative image-based absorbed dose, bone marrow, range across patients: 0.14–0.87 Gy
  Cumulative image-based absorbed dose, salivary glands, range across patients: 1.25–5.53 Gy
[2]
  Cumulative image-based absorbed dose, bone marrow, range across patients: 0.03–0.42 Gy
  Cumulative image-based absorbed dose, salivary glands, range across patients: 0.79–3.40 Gy
Cycle 1, 13 patients
  Mean (SD) Absorbed Dose, adrenals: 0.007 (0.002) Gy/GBq
  Mean (SD) Absorbed Dose, bladder wall: 0.018 (0.013) Gy/GBq
  Mean (SD) Absorbed Dose, bone marrow (image-based): 0.011 (0.010) Gy/GBq
  Mean (SD) Absorbed Dose, brain: 0.002 (0.001) Gy/GBq
  Mean (SD) Absorbed Dose, gall bladder wall: 0.004 (0.002) Gy/GBq
  Mean (SD) Absorbed Dose, heart: 0.013 (0.004) Gy/GBq
  Mean (SD) Absorbed Dose, intestine: 0.002 (0.001) Gy/GBq
  Mean (SD) Absorbed Dose, kidneys: 0.266 Gy/GBq and 0.27 Gy/GBq and 0.266 (0.075) Gy/GBq
  Mean (SD) Absorbed Dose, lacrimal glands: 0.568 (0.348) Gy/GBq
  Mean (SD) Absorbed Dose, liver: 0.034 (0.021) Gy/GBq
  Mean (SD) Absorbed Dose, lungs: 0.058 (0.072) Gy/GBq
  Mean (SD) Absorbed Dose, pancreas: 0.002 (0.001) Gy/GBq
  Mean (SD) Absorbed Dose, prostate: 0.003 (0.002) Gy/GBq
  Mean (SD) Absorbed Dose, salivary glands: 0.130 Gy/GBq and 0.13 Gy/GBq and 0.130 (0.068) Gy/GBq
  Mean (SD) Absorbed Dose, spleen: 0.034 (0.023) Gy/GBq
  Mean (SD) Absorbed Dose, stomach wall: 0.005 (0.005) Gy/GBq
  Mean (SD) Absorbed Dose, ureters: 0.002 (0.001) Gy/GBq
[3]
  Cumulative Absorbed Dose, Bone Marrow: 0.14 Gy
  Cumulative Absorbed Dose, Kidney: 8.20 Gy
  Cumulative Absorbed Dose, Salivary Glands: 5.53 Gy
  Cumulative Absorbed Dose, Bone Marrow, % of dose limit: 7.0%
  Cumulative Absorbed Dose, Kidney, % of dose limit: 36%
  Cumulative Absorbed Dose, Salivary Glands, % of dose limit: 23%
[4]
  Cumulative Absorbed Dose, Bone Marrow: 0.14 Gy
  Cumulative Absorbed Dose, Kidney: 5.86 Gy
  Cumulative Absorbed Dose, Salivary Glands: 1.25 Gy
  Cumulative Absorbed Dose, Bone Marrow, % of dose limit: 7.0%
  Cumulative Absorbed Dose, Kidney, % of dose limit: 25%
  Cumulative Absorbed Dose, Salivary Glands, % of dose limit: 5.2%
[5]
  Cumulative Absorbed Dose, Bone Marrow: 0.87 Gy
  Cumulative Absorbed Dose, Kidney: 6.15 Gy
  Cumulative Absorbed Dose, Salivary Glands: 2.96 Gy
  Cumulative Absorbed Dose, Bone Marrow, % of dose limit: 44%
  Cumulative Absorbed Dose, Kidney, % of dose limit: 27%
  Cumulative Absorbed Dose, Salivary Glands, % of dose limit: 12%
[6]
  Cumulative Absorbed Dose, Bone Marrow: 0.13 Gy
  Cumulative Absorbed Dose, Kidney: 8.33 Gy
  Cumulative Absorbed Dose, Salivary Glands: 2.87 Gy
